Measured values reported in patent US12667546B2, “Methods for manipulating cell state transitions in cancer” (AGENCY FOR SCIENCE, TECHNOLOGY AND RESEARCH, priority 2018, dated 2026).
Entries after “also recorded” stand apart in the source; their conditions may differ. Where two headings read alike, the source gives them in different places.

Columns and labels:
[1] = tested on: NAMEC8; test: Cell morphology of treated NAMEC8; assay type: cell-based, human; conditions: bexarotene, TTNPB, SGC-CBP30, UNC0642, A-485 1 μM, LLY-283, GSK591 20 nM, C-IN-1 500 nM
Description: Human mammary epithelial cell lines (HMLE) were generated as described and immortalized using retroviral vectors to express the catalytic subunit of the human telomerase enzyme, hTERT and the SV-40 Large T antigen. NAMEC8 was generated as described. Briefly, HMLE cells were grown to 50% confluency, followed by differential trypsinization for 1 minute with 0.05% trypsin. Detached cells were carefully collected and re-plated at approximately 200 cells per well of a 24-well plate. Upon expansion, wells were screened for populations that were morphologically mesenchymal and can be stably propagated. Clonal and non-clonal NAMEC cell lines were generated. NAMEC8 is a non-clonal line derived from at least 200 mesenchymal cells. HMLE cells and NAMECs were maintained in MEGM (Lonza).

[2] = tested on: NAMEC8; test: Expression of EMT and lineage markers (qRT-PCR, immunoblot, immunofluorescence) in NAMEC8; assay type: cell-based, human; conditions: transcript and protein
Description: Cells were rinsed twice in ice-cold PBS. Total RNA was extracted using Trizol (Invitrogen) and column-purified with RNeasy kits (Qiagen). cDNA synthesis was performed with 500 ng of total RNA at 37° C. for 2 h using the SuperScript III First-Strand Synthesis System (Thermo Fisher Scientific), and subsequently diluted 5-fold. mRNA levels were measured with gene-specific primers listed below using the ABI Prism 7900HT Sequence Detection System 2.2 (Applied Biosystems). Results were normalized to GAPDH and analyzed using SDS 2.2 software.
Cells were harvested and scraped from culture dishes in ice-cold PBS. They were then centrifuged at 12000 rpm for 5 min at 4° C. The pellets were then snap frozen in liquid nitrogen or lysed in ice-cold RIPA lysis buffer (Thermo Scientific) and left on ice for 30 min. Subsequently, the lysates were centrifuged at 12000 rpm for 10 min at 4° C. The supernatants were then aspirated and placed in fresh tubes. Protein concentrations were determined using Coomaisse Blue. 50-80 μg total protein was mixed with NuPAGE™ LDS sample buffer and heated at 70° C. for 10 min. Samples were loaded into NuPAGE™ 4-12% Bis-Tris gels (precast polyacrylamide gel; Invitrogen™). Gel electrophoresis was done at 200V for 1.5 h and then blotted onto nitrocellulose membranes (Trans-Blot Turbo™ transfer pack; Bio-Rad). The membranes were blocked with 5% skimmed milk in Tris-buffered saline (TBS; 1st BASE) with 0.1% Tween-20 (Santa Cruz), and then incubated with primary antibodies overnight at 4° C. Thereafter, the membranes were incubated with a horseradish peroxidase (HRP)-conjugated secondary antibody at room temperature for one hour. Finally, the immunoreactive proteins were visualized by using an enhanced chemiluminescent (ECL) reagent (Thermo Scientific, 34075) with the Chemidoc™ Imager (Bio-Rad, 17001401).
Cell cultures were fixed in 4% paraformaldehyde and permeabilized with 0.25% Triton X-100, followed by blocking with 1% bovine serum albumin in PBST. Cells were incubated in specific primary antibodies, followed by the appropriate secondary antibodies conjugated with Alexa Fluor-488 or -594 (Molecular Probes). Cell nuclei were then stained with DAPI and then viewed and imaged with an Axio Observer D1 epifluorescence microscope with a built-in AxioCamMR3 camera (Zeiss), using the optimal filters and 100-200× magnifications.

[3] = tested on: NAMEC8; test: Flow cytometry of CD44 and CD24, NAMEC8; assay type: cell-based, human
Description: Cells were harvested as per FACS and resuspended in 100 μl of solution containing CD24-PE and CD44-APC (BD-Biosciences) antibodies diluted in 2% FBS in PBS (1:40 dilution). Cells were stained for 45 min with vortexing every 10 min to ensure even staining. After antibody incubation, cells were washed once and resuspended in 300 μl 2% FBS in PBS. Cells were then filtered through a 40 μm strainer and analyzed on BD LSR Fortessa X-20 Cell Analyzer.

[4] = tested on: NAMEC8-Ras; test: Tumor formation of pre-treated NAMEC8-Ras injected subcutaneously; assay type: in vivo, NSG mice; conditions: pre-treated cells, 11 weeks
[5] = tested on: metastatic TNBC; conditions: cited from earlier work

Molecule: CNC(=O)Nc1ccc2c(c1)CC[C@@]21OC(=O)N(CC(=O)N(Cc2ccc(F)cc2)[C@@H](C)C(F)(F)F)C1=O [A-485]
- cell morphology [1]: tight clusters of epithelial islands were observed; also recorded: Epithelial-like morphology was observed
- expression of EMT and basal/luminal markers [2]: upregulation of E-cadherin protein expression, with slight decrease in the mesenchymal markers
- CD44/CD24 surface expression [3]: obvious increase in CD44 expression; also recorded: higher CD44 expression
- tumor formation / tumor size [4]: Tumor formation was still observed

Molecule: Pembrolizumab: immune checkpoint monotherapy in Keynote 012 and Keynote 086 studies
- response rate ([5]; Keynote 012, phase 1, monotherapy): 18%
- response rate ([5]; Keynote 086, phase 2, monotherapy): 5%
